Marks after values point to notes of the source that are not given here.
What was measured:
[1] = tested on: different aged patients with occasional constipation; test: Weekly number of spontaneous bowel movements by age (Example 5); assay type: in vivo, human; settings: 48 μg/day, 4 weeks; all aged groups, even 65 years and older
Experimental: Multi-center, parallel-group, double-blind, placebo-controlled study was performed to compare the effect of Compound A on improving weekly number of spontaneous bowel movements among different aged patients with occasional constipation. The patients were received 48 μg (total daily dose) of Compound A (24 μg of Compound A b.i.d) for 4 weeks. The bowel movements in the patient were recorded during the treatment.

[2] = tested on: subjects with irritable bowel syndrome (IBS); test: IBS QOL questionnaire, 12-week double-blind randomized study (Example 7); assay type: in vivo, human; parameters: key to IBS QOL Overall scaled score, Mean / IBS QOL Dysphoria scaled score, Mean / IBS QOL Interference with Activity scaled score, Mean / IBS QOL Body Image scaled score, Mean / IBS QOL Health Worry scaled score, Mean / IBS QOL Food Avoidance scaled score, Mean / IBS QOL Social Reaction scaled score, Mean / IBS QOL Sexual scaled score, Mean / IBS QOL Relationship scaled score, Mean: IBS-QOL scaled score, 0–100; settings: for IBS QOL Body Image scaled score, Mean / IBS QOL Dysphoria scaled score, Mean / IBS QOL Food Avoidance scaled score, Mean / IBS QOL Health Worry scaled score, Mean / IBS QOL Interference with Activity scaled score, Mean / IBS QOL Overall scaled score, Mean / IBS QOL Relationship scaled score, Mean / IBS QOL Sexual scaled score, Mean / IBS QOL Social Reaction scaled score, Mean: Baseline; for IBS QOL Body Image, Mean change from Baseline / IBS QOL Dysphoria, Mean change from Baseline / IBS QOL Food Avoidance, Mean change from Baseline / IBS QOL Health Worry, Mean change from Baseline / IBS QOL Interference with Activity, Mean change from Baseline / IBS QOL Overall, Mean change from Baseline / IBS QOL Relationship, Mean change from Baseline / IBS QOL Sexual, Mean change from Baseline / IBS QOL Social Reaction, Mean change from Baseline: without LOCF
Experimental: A 12-week, double-blind, randomized study was performed to assess the safety and efficacy of oral 16 μg, 32 μg and 48 μg (total daily dose) of compound A to subjects with irritable bowel syndrome (IBS).
The patients answered the IBS QOL questionnaire at baseline, at week 4, Week 12 and at the end of study, and Questionnaire results were scored according to the IBS QOL User's Manual (A Quality of Life Measure for Persons with Irritable Bowel Syndrome (IBS-QOL): User's Manual and Scoring Diskette for United States Version. Seattle, Wash.: University of Washington; 1997). Scaled scores were used for all analyses, and scores were calculated according to the User's Manual as follows: Scaled Score=([Sum of IBS-QOL items−lowest possible score]/Possible raw score range))×100
Changes from baseline at week 4, week 12 and at the End of Study were assessed for the mean overall score and for the mean domain scores (dysphoria, interference with activity, body image, health worry, food avoidance, social reaction, sexual, and relationship).

SMILES: CCCCC(F)(F)C(=O)CCC1C(O)CC(=O)C1CCCCCCC(=O)O (centres unmarked) [Compound A, 13,14-dihydro-15-keto-16,16-difluoro-PGE1]
- Effect on weekly number of spontaneous bowel movements by age (FIG. 14) [1]: significantly effective
- Improvement from baseline in IBS-QOL compared among dose groups ([2]; 16 μg group vs. 32 μg and 48 μg groups, every specific area and QOL overall): greatest improvement
- IBS QOL Body Image scaled score, Mean ([2]; 16 μg group): 41.42
- IBS QOL Dysphoria scaled score, Mean ([2]; 16 μg group): 53.19
- IBS QOL Food Avoidance scaled score, Mean ([2]; 16 μg group): 46.08
- IBS QOL Health Worry scaled score, Mean ([2]; 16 μg group): 37.74
- IBS QOL Interference with Activity scaled score, Mean ([2]; 16 μg group): 65.82
- IBS QOL Overall scaled score, Mean ([2]; 16 μg group): 55.66
- IBS QOL Relationship scaled score, Mean ([2]; 16 μg group): 67.81
- IBS QOL Sexual scaled score, Mean ([2]; 16 μg group): 64.95
- IBS QOL Social Reaction scaled score, Mean ([2]; 16 μg group): 63.97
- IBS QOL Body Image, Mean change from Baseline ([2]; 16 μg/day, End of Study): 20.41**
- IBS QOL Dysphoria, Mean change from Baseline ([2]; 16 μg/day, End of Study): 21.62**
- IBS QOL Food Avoidance, Mean change from Baseline ([2]; 16 μg/day, End of Study): 13.95**
- IBS QOL Health Worry, Mean change from Baseline ([2]; 16 μg/day, End of Study): 21.94**
- IBS QOL Interference with Activity, Mean change from Baseline ([2]; 16 μg/day, End of Study): 11.95**
- IBS QOL Overall, Mean change from Baseline ([2]; 16 μg/day, End of Study): 16.82**
- IBS QOL Relationship, Mean change from Baseline ([2]; 16 μg/day, End of Study): 14.28**
- IBS QOL Sexual, Mean change from Baseline ([2]; 16 μg/day, End of Study): 14.03**
- IBS QOL Social Reaction, Mean change from Baseline ([2]; 16 μg/day, End of Study): 13.78**
- IBS QOL Body Image, Mean change from Baseline ([2]; 16 μg/day, Week 4): 16.39**
- IBS QOL Dysphoria, Mean change from Baseline ([2]; 16 μg/day, Week 4): 17.85**
- IBS QOL Food Avoidance, Mean change from Baseline ([2]; 16 μg/day, Week 4): 13.89**
- IBS QOL Health Worry, Mean change from Baseline ([2]; 16 μg/day, Week 4): 22.41**
- IBS QOL Interference with Activity, Mean change from Baseline ([2]; 16 μg/day, Week 4): 10.87**
- IBS QOL Overall, Mean change from Baseline ([2]; 16 μg/day, Week 4): 14.7**
- IBS QOL Relationship, Mean change from Baseline ([2]; 16 μg/day, Week 4): 10.74**
- IBS QOL Sexual, Mean change from Baseline ([2]; 16 μg/day, Week 4): 13.33**
- IBS QOL Social Reaction, Mean change from Baseline ([2]; 16 μg/day, Week 4): 11.94**
- IBS QOL Body Image, Mean change from Baseline ([2]; 16 μg/day, Week 12): 22.32**
- IBS QOL Dysphoria, Mean change from Baseline ([2]; 16 μg/day, Week 12): 23.51**
- IBS QOL Food Avoidance, Mean change from Baseline ([2]; 16 μg/day, Week 12): 15.28**
- IBS QOL Health Worry, Mean change from Baseline ([2]; 16 μg/day, Week 12): 23.81**
- IBS QOL Interference with Activity, Mean change from Baseline ([2]; 16 μg/day, Week 12): 13.95**
- IBS QOL Overall, Mean change from Baseline ([2]; 16 μg/day, Week 12): 18.54**
- IBS QOL Relationship, Mean change from Baseline ([2]; 16 μg/day, Week 12): 15.47**
- IBS QOL Sexual, Mean change from Baseline ([2]; 16 μg/day, Week 12): 16.67**
- IBS QOL Social Reaction, Mean change from Baseline ([2]; 16 μg/day, Week 12): 14.58**
- IBS QOL Body Image scaled score, Mean ([2]; 32 μg group): 43.37
- IBS QOL Dysphoria scaled score, Mean ([2]; 32 μg group): 59.69
- IBS QOL Food Avoidance scaled score, Mean ([2]; 32 μg group): 52.21
- IBS QOL Health Worry scaled score, Mean ([2]; 32 μg group): 44.38
- IBS QOL Interference with Activity scaled score, Mean ([2]; 32 μg group): 69.82
- IBS QOL Overall scaled score, Mean ([2]; 32 μg group): 60.14
- IBS QOL Relationship scaled score, Mean ([2]; 32 μg group): 70.23
- IBS QOL Sexual scaled score, Mean ([2]; 32 μg group): 68.62
- IBS QOL Social Reaction scaled score, Mean ([2]; 32 μg group): 66.84
- IBS QOL Body Image, Mean change from Baseline ([2]; 32 μg/day, End of Study): 17.47**
- IBS QOL Dysphoria, Mean change from Baseline ([2]; 32 μg/day, End of Study): 14.77**
- IBS QOL Food Avoidance, Mean change from Baseline ([2]; 32 μg/day, End of Study): 10.79**
- IBS QOL Health Worry, Mean change from Baseline ([2]; 32 μg/day, End of Study): 17.61**
- IBS QOL Interference with Activity, Mean change from Baseline ([2]; 32 μg/day, End of Study): 8.2**
- IBS QOL Overall, Mean change from Baseline ([2]; 32 μg/day, End of Study): 12.58**
- IBS QOL Relationship, Mean change from Baseline ([2]; 32 μg/day, End of Study): 10.79**
- IBS QOL Sexual, Mean change from Baseline ([2]; 32 μg/day, End of Study): 10.23**
- IBS QOL Social Reaction, Mean change from Baseline ([2]; 32 μg/day, End of Study): 11.08**
- IBS QOL Body Image, Mean change from Baseline ([2]; 32 μg/day, Week 4): 15.28**
- IBS QOL Dysphoria, Mean change from Baseline ([2]; 32 μg/day, Week 4): 14.58**
- IBS QOL Food Avoidance, Mean change from Baseline ([2]; 32 μg/day, Week 4): 8.33*
- IBS QOL Health Worry, Mean change from Baseline ([2]; 32 μg/day, Week 4): 16.9**
- IBS QOL Interference with Activity, Mean change from Baseline ([2]; 32 μg/day, Week 4): 7.04*
- IBS QOL Overall, Mean change from Baseline ([2]; 32 μg/day, Week 4): 11.25**
- IBS QOL Relationship, Mean change from Baseline ([2]; 32 μg/day, Week 4): 7.64*
- IBS QOL Sexual, Mean change from Baseline ([2]; 32 μg/day, Week 4): 8.68**
- IBS QOL Social Reaction, Mean change from Baseline ([2]; 32 μg/day, Week 4): 9.9**
- IBS QOL Body Image, Mean change from Baseline ([2]; 32 μg/day, Week 12): 17.99**
- IBS QOL Dysphoria, Mean change from Baseline ([2]; 32 μg/day, Week 12): 15.25**
- IBS QOL Food Avoidance, Mean change from Baseline ([2]; 32 μg/day, Week 12): 11.36**
- IBS QOL Health Worry, Mean change from Baseline ([2]; 32 μg/day, Week 12): 19.44**
- IBS QOL Interference with Activity, Mean change from Baseline ([2]; 32 μg/day, Week 12): 9.42**
- IBS QOL Overall, Mean change from Baseline ([2]; 32 μg/day, Week 12): 13.08**
- IBS QOL Relationship, Mean change from Baseline ([2]; 32 μg/day, Week 12): 9.09*
- IBS QOL Sexual, Mean change from Baseline ([2]; 32 μg/day, Week 12): 10.98**
- IBS QOL Social Reaction, Mean change from Baseline ([2]; 32 μg/day, Week 12): 10.8**
- IBS QOL Body Image scaled score, Mean ([2]; 48 μg group): 45.69
- IBS QOL Dysphoria scaled score, Mean ([2]; 48 μg group): 56.81
- IBS QOL Food Avoidance scaled score, Mean ([2]; 48 μg group): 50.37
- IBS QOL Health Worry scaled score, Mean ([2]; 48 μg group): 44.07
- IBS QOL Interference with Activity scaled score, Mean ([2]; 48 μg group): 68.25
- IBS QOL Overall scaled score, Mean ([2]; 48 μg group): 59.85
- IBS QOL Relationship scaled score, Mean ([2]; 48 μg group): 75.18
- IBS QOL Sexual scaled score, Mean ([2]; 48 μg group): 71.94
- IBS QOL Social Reaction scaled score, Mean ([2]; 48 μg group): 66.81
- IBS QOL Body Image, Mean change from Baseline ([2]; 48 μg/day, End of Study): 14.24**
- IBS QOL Dysphoria, Mean change from Baseline ([2]; 48 μg/day, End of Study): 16.28**
- IBS QOL Food Avoidance, Mean change from Baseline ([2]; 48 μg/day, End of Study): 8.33**
- IBS QOL Health Worry, Mean change from Baseline ([2]; 48 μg/day, End of Study): 17.05**
- IBS QOL Interference with Activity, Mean change from Baseline ([2]; 48 μg/day, End of Study): 7.97**
- IBS QOL Overall, Mean change from Baseline ([2]; 48 μg/day, End of Study): 11.54**
- IBS QOL Relationship, Mean change from Baseline ([2]; 48 μg/day, End of Study): 6.01**
- IBS QOL Sexual, Mean change from Baseline ([2]; 48 μg/day, End of Study): 3.49
- IBS QOL Social Reaction, Mean change from Baseline ([2]; 48 μg/day, End of Study): 12.06**
- IBS QOL Body Image, Mean change from Baseline ([2]; 48 μg/day, Week 4): 13.24**
- IBS QOL Dysphoria, Mean change from Baseline ([2]; 48 μg/day, Week 4): 17.28**
- IBS QOL Food Avoidance, Mean change from Baseline ([2]; 48 μg/day, Week 4): 12.01**
- IBS QOL Health Worry, Mean change from Baseline ([2]; 48 μg/day, Week 4): 19.61**
- IBS QOL Interference with Activity, Mean change from Baseline ([2]; 48 μg/day, Week 4): 9.14**
- IBS QOL Overall, Mean change from Baseline ([2]; 48 μg/day, Week 4): 12.43**
- IBS QOL Relationship, Mean change from Baseline ([2]; 48 μg/day, Week 4): 6.87**
- IBS QOL Sexual, Mean change from Baseline ([2]; 48 μg/day, Week 4): 8.46**
- IBS QOL Social Reaction, Mean change from Baseline ([2]; 48 μg/day, Week 4): 8.82**
- IBS QOL Body Image, Mean change from Baseline ([2]; 48 μg/day, Week 12): 17.08**
- IBS QOL Dysphoria, Mean change from Baseline ([2]; 48 μg/day, Week 12): 20.83**
- IBS QOL Health Worry, Mean change from Baseline ([2]; 48 μg/day, Week 12): 23.33**
- IBS QOL Interference with Activity, Mean change from Baseline ([2]; 48 μg/day, Week 12): 10.95**
- IBS QOL Overall, Mean change from Baseline ([2]; 48 μg/day, Week 12): 14.8**
- IBS QOL Relationship, Mean change from Baseline ([2]; 48 μg/day, Week 12): 6.95**
- IBS QOL Sexual, Mean change from Baseline ([2]; 48 μg/day, Week 12): 5
- IBS QOL Social Reaction, Mean change from Baseline ([2]; 48 μg/day, Week 12): 14.17**
- IBS-QOL change from baseline vs. zero ([2]; all groups (16, 32, 48 μg)): significantly different from Zero

Source: patent publication US8748481B2, “Method for treating gastrointestinal disorder” (Sucampo AG, priority 2004, dated 2014)
